Twelve compounds from ChEMBL document CHEMBL1129381, “Novel (R)-2-amino-5-fluorotetralins: dopaminergic antagonists and inverse agonists” (J Med Chem, 1996) can be followed below.

Assay [1] concerns the target T1, D(2) dopamine receptor (Homo sapiens, UniProt P14416). Nature of the assay: Hill coefficients for [3H]-raclopride binding to dopamine D2 receptor high-and low-affinity agonist states.
The target of assay [2] is T1, D(2) dopamine receptor.
Assay [3] deals with T2, D(3) dopamine receptor (Homo sapiens, UniProt P35462).
T2 sequence (P35462 whole entry): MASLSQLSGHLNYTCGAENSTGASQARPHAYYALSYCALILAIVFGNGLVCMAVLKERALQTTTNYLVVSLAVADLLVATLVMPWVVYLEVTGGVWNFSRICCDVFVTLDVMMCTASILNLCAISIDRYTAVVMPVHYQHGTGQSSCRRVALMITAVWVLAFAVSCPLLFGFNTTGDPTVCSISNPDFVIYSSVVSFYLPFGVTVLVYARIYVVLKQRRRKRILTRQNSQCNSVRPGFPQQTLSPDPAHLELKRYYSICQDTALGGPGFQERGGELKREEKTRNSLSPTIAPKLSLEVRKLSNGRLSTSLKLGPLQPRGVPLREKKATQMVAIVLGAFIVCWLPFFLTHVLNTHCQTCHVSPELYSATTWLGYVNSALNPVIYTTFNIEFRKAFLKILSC
The target of assay [4] is T3, 5-hydroxytryptamine receptor 1A (Rattus norvegicus, UniProt P19327).
T3 sequence (P19327 whole entry): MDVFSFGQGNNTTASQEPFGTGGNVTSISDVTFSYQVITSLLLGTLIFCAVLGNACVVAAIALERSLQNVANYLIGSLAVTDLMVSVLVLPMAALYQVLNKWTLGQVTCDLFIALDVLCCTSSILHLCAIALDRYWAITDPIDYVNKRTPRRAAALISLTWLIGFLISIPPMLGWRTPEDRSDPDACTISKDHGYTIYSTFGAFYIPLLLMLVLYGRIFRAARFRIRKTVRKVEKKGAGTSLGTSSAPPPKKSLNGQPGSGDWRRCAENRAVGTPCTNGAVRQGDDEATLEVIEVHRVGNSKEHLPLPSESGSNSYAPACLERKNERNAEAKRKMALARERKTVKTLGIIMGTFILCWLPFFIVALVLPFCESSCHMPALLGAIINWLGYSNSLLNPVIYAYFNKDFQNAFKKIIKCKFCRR
As to the kind of experiment: Inhibition of [3H]8-OH-DPAT binding to 5-hydroxytryptamine 1A receptor.

Assay [5] concerns the target T2, D(3) dopamine receptor. The source holds these as a separate data set.
Assay [6] concerns the target T1, D(2) dopamine receptor. Nature of the assay: Inhibition of [3H]raclopride binding to Dopamine receptor D2.
Assay [7] deals with T1, D(2) dopamine receptor. The source holds these as a separate data set.

SMILES strings stand for the structures.

T1 sequence (P14416 whole entry): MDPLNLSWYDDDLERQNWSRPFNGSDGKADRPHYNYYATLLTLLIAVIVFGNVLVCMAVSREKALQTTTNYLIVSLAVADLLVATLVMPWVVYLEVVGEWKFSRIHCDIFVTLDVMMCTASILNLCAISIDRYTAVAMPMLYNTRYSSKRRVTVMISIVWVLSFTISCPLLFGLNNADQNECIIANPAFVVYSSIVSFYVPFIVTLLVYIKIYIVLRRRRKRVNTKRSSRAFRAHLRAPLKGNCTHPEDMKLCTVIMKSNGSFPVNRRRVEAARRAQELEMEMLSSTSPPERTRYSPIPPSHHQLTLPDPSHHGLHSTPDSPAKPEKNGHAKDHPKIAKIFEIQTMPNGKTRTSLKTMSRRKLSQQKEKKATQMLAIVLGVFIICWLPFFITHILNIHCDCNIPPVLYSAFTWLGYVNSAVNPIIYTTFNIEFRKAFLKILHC

As to `CCCN(CCCCN1C(=O)CC2(CCCC2)CC1=O)[C@@H]1CCc2c(F)cccc2C1`, the figures for the nH on D(2) dopamine receptor [1] and at D(3) dopamine receptor [5] were 0.87 and 0.92, respectively. For the same compound, the Ki on D(2) dopamine receptor [2] stood at 4.94 nM; on D(3) dopamine receptor [3], 0.251 nM; in assay [4], 0.246 nM; on D(2) dopamine receptor [6], 16.9 nM.
Turning to `O=C1CC2(CCCC2)CC(=O)N1CCCCN[C@@H]1CCc2c(F)cccc2C1`, the nH at D(2) dopamine receptor [1] and on D(3) dopamine receptor [5] was 0.88 throughout. In addition, the Ki on D(2) dopamine receptor [2] is 37 nM; on D(3) dopamine receptor [3], 4.94 nM; in assay [4] it was 6.46 nM; on D(2) dopamine receptor [6], 68.2 nM.
With `CCCN(CCC)[C@@H]1CCc2c(F)cccc2C1`, the nH on D(2) dopamine receptor [1] was determined as 0.89; on D(3) dopamine receptor [5], 1.03. Also, the Ki came out at 201 nM on D(2) dopamine receptor [7], 26 nM on D(2) dopamine receptor [2], 8.62 nM on D(3) dopamine receptor [3] and 30.2 nM in assay [4].
For `CCCCN(CCC)[C@@H]1CCc2c(F)cccc2C1`, the nH at D(2) dopamine receptor [1] was found to be 0.91; on D(3) dopamine receptor [5], 0.98. Besides, the Ki on D(2) dopamine receptor [7] was 210 nM; at D(2) dopamine receptor [2], 45.6 nM; at D(3) dopamine receptor [3], 4.42 nM; in assay [4], 44.5 nM.
Consider `CCCN[C@@H]1CCc2c(F)cccc2C1`, for which the nH at D(2) dopamine receptor [1] is 0.86; at D(3) dopamine receptor [5], 0.92. For the same compound, the inhibitory constant (Ki) stood at 582 nM at D(2) dopamine receptor [7], 167 nM at D(2) dopamine receptor [2], 35.8 nM on D(3) dopamine receptor [3] and 108 nM in assay [4].
With `N[C@@H]1CCc2c(F)cccc2C1`, the nH turned out to be 0.81 on D(2) dopamine receptor [1] and 0.99 on D(3) dopamine receptor [5]. In addition, the Ki at D(2) dopamine receptor [7] stood at 864 nM; at D(2) dopamine receptor [2], 585 nM; on D(3) dopamine receptor [3], 150 nM; in assay [4], 525 nM.
`NCCc1ccc(O)c(O)c1` displayed a nH on D(2) dopamine receptor [1] of 0.66.
Take `CCCN(Cc1ccccc1)[C@@H]1CCc2c(F)cccc2C1`: the nH on D(2) dopamine receptor [1] was determined as 0.86; at D(3) dopamine receptor [5], 0.92. Besides, the Ki stood at 415 nM at D(2) dopamine receptor [7], 179 nM at D(2) dopamine receptor [2], 23.8 nM on D(3) dopamine receptor [3] and 28.8 nM in assay [4].
Consider `Fc1cccc2c1CC[C@@H](NCc1ccccc1)C2`, for which the results for the nH on D(2) dopamine receptor [1] and at D(3) dopamine receptor [5] were 0.81 and 0.88, respectively. The Ki at D(2) dopamine receptor [7] was determined as 2830 nM; on D(2) dopamine receptor [2], 779 nM; on D(3) dopamine receptor [3], 1050 nM; in assay [4], 494 nM.
Take `CCCCN[C@@H]1CCc2c(F)cccc2C1`: the nH came to 0.93 at D(2) dopamine receptor [1] and 0.79 at D(3) dopamine receptor [5]. Further, the Ki on D(2) dopamine receptor [7] worked out at 790 nM; at D(2) dopamine receptor [2] it was 254 nM; on D(3) dopamine receptor [3], 158 nM; in assay [4], 440 nM.
For `CC(C)N[C@@H]1CCc2c(F)cccc2C1`, the nH was 0.88 at D(2) dopamine receptor [1] and 0.9 at D(3) dopamine receptor [5]. In addition, the Ki at D(2) dopamine receptor [7] came out at 5940 nM; on D(3) dopamine receptor [3], 1450 nM; in assay [4], 627 nM.
For the compound `CCCN(C(C)C)[C@@H]1CCc2c(F)cccc2C1`, the nH on D(2) dopamine receptor [1] worked out at 0.94; at D(3) dopamine receptor [5], 0.91. Besides, the Ki at D(2) dopamine receptor [7] is 4720 nM; on D(2) dopamine receptor [2], 1530 nM; on D(3) dopamine receptor [3], 199 nM; in assay [4], 644 nM.

The Ki is the equilibrium dissociation constant of an inhibitor or competing ligand from its target. Low readings indicate higher affinity, high ones lower affinity.
